Data from US12077555B2, “STAT degraders and uses thereof” (Kymera Therapeutics, Inc., priority 2019, dated 2024).

Molecular target: STAT3 (Homo sapiens, UniProt P40763)
Assay: STAT3 HiBiT degradation assay in transfected A549 cells
Format: cell-based
Design: expressed in transfected cells; host or cells: A549
Conditions: A549, 24 h; read-out: STAT3 HiBiT A549 degradation 24 h: Average external-Abs DC50
In short: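 Degradation read as HiBiT-tagged STAT3 luminescence (Nano-Glo lytic reagent, 10 min, room temperature) following 24 h compound treatment of transfected A549 cells at 3-fold, 10 points. Percent remaining signal computed against controls and fitted with a four-parameter logistic; DC50 reported as letter bins (A <0.01 to D >1.0 µM).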

STAT3, sequence (P40763 whole entry): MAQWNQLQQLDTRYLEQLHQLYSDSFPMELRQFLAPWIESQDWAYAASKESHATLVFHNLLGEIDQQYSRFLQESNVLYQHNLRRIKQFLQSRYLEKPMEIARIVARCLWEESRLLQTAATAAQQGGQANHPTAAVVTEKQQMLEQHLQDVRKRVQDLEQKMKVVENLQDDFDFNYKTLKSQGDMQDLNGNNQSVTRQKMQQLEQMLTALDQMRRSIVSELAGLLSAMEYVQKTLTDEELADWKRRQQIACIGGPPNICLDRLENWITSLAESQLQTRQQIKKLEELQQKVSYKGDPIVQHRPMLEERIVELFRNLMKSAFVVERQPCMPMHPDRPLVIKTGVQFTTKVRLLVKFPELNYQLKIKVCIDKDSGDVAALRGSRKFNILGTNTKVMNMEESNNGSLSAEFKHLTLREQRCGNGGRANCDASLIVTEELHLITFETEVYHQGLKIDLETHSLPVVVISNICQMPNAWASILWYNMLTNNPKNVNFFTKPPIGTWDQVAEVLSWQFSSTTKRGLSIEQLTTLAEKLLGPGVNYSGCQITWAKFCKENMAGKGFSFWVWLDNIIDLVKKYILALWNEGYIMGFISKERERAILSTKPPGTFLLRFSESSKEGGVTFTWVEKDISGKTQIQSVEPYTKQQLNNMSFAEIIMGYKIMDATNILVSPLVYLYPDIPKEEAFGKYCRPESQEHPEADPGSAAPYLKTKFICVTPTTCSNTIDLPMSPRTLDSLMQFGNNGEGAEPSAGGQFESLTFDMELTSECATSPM

Structure (SMILES)	DC50 [nM]
Cc1ncsc1-c1ccc(CNC(=O)[C@@H]2C[C@@H](O)CC2C(=O)[C@@H](NC(=O)CCc2ccc(CCCOC[C@H](CCC(N)=O)NC(=O)[C@@H]3Cc4cccc5c4N3C(=O)[C@@H](NC(=O)c3cc4cc(C(=O)P(=O)(O)O)ccc4[nH]3)CC5)cc2)C(C)(C)C)cc1 (stereo partly drawn) [Compound I-170, diammonium 2-[[(2S,11S)-2-[[(2S)-4-carbamoyl-1-[3-[4-(2-[[(2S)-1-[(2S,4R)-4-hydroxy-2-([[4-(4-methyl-1,3-thiazo1-5-yl)phenyl]methyl]carbamoyl)pyrrolidin-1-yl]-3,3-dimethyl-1-oxobutan-2-yl]carbamoyl]ethyl)phenyl]propoxy]butan-2-yl]carbamoyl]-12-oxo-1-azatricyclo[6.4.1.0^[4,13]]trideca-4(13),5,7-trien-11-yl]carbamoyl]-1H-indole-5-carbonylphosphonate]	> 1000
Cc1ncsc1-c1ccc(CNC(=O)[C@@H]2C[C@@H](O)CC2C(=O)[C@@H](NC(=O)CCCCC/C=C\COC[C@H](CCC(N)=O)NC(=O)[C@@H]2Cc3cccc4c3N2C(=O)[C@@H](NC(=O)c2cc3cc(C(=O)P(=O)(O)O)ccc3[nH]2)CC4)C(C)(C)C)cc1 (some centres unmarked) [Compound I-171]	100 to 1000
CC(=O)N1CC[C@H]2CC[C@@H](C(=O)N[C@@H](CCC(N)=O)C(=O)NCCCCCCCC(=O)N[C@H](C(=O)N3C[C@H](O)C[C@H]3C(=O)NCc3ccc(-c4scnc4C)cc3)C(C)(C)C)N2C(=O)[C@@H](NC(=O)c2cc3cc(C(=O)P(=O)(O)O)ccc3[nH]2)C1 [Compound I-172, 2-[[(5S,8S,10aR)-3-acetyl-8-[[(1S)-3-carbamoyl-1-[(7-[[(2S)-1-[(2S,4R)-4-hydroxy-2-([[4-(4-methyl-1,3-thiazol-5-yl)phenyl]methyl]carbamoyl)pyrrolidin-1-yl]-3,3-dimethyl-1-oxobutan-2-yl]carbamoyl]heptyl)carbamoyl]propyl]carbamoyl]-6-oxo-octahydropyrrolo[1,2-a][1,5]diazocin-5-yl]carbamoyl]-1H-indole-5-carbonylphosphonic acid]	> 1000
CC(=O)N1CC[C@H]2CC[C@@H](C(=O)N[C@@H](CCC(N)=O)C(=O)NCCCCCCCCC(=O)N[C@H](C(=O)N3C[C@H](O)C[C@H]3C(=O)NCc3ccc(-c4scnc4C)cc3)C(C)(C)C)N2C(=O)[C@@H](NC(=O)c2cc3cc(C(=O)P(=O)(O)O)ccc3[nH]2)C1 [Compound I-173]	> 1000
Cn1c(=O)n(C2CCC(=O)NC2=O)c2ccc(N3CCN(CCC(=O)N4CC[C@H]5CC[C@@H](C(=O)N[C@@H](CCC(N)=O)C(=O)NC(c6ccccc6)c6ccccc6)N5C(=O)[C@@H](NC(=O)c5cc6cc(C(=O)P(=O)(O)O)ccc6[nH]5)C4)CC3)cc21 (stereo partly drawn) [Compound I-175, 2-[[(5S,8S,10aR)-8-[[(1S)-3-carbamoyl-1-(diphenylmethylcarbamoyl)propyl]carbamoyl]-3-(3-[4-[1-(2,6-dioxopiperidin-3-yl)-3-methyl-2-oxo-1,3-benzodiazol-5-yl]piperazin-1-yl]propanoyl)-6-oxo-octahydropyrrolo[1,2-a][1,5]diazocin-5-yl]carbamoyl]-1H-indole-5-carbonylphosphonic acid]	100 to 1000
Cc1ncsc1-c1ccc(CNC(=O)C2C[C@@H](O)CN2C(=O)[C@@H](NC(=O)CC2CC(c3ccc(CO[C@H](C)[C@H](CCC(N)=O)NC(=O)[C@@H]4Cc5cccc6c5N4C(=O)[C@@H](NC(=O)c4cc5cc(C(=O)P(=O)(O)O)ccc5[nH]4)CC6)cc3)C2)C(C)(C)C)cc1 (some centres unmarked) [Compound I-176]	> 1000
Cn1c(=O)n(C2CCC(=O)NC2=O)c2ccc(C3CCN(CCC(=O)N4CC[C@H]5CC[C@@H](C(=O)N[C@@H](CCC(N)=O)C(=O)NC(c6ccccc6)c6ccccc6)N5C(=O)[C@@H](NC(=O)c5cc6cc(C(=O)P(=O)(O)O)ccc6[nH]5)C4)CC3)cc21 (stereo partly drawn) [Compound I-177, 2-[[(5S,8S,10aR)-8-[[(1S)-3-carbamoyl-1-(diphenylmethylcarbamoyl)propyl]carbamoyl]-3-(3-[4-[1-(2,6-dioxopiperidin-3-yl)-3-methyl-2-oxo-1,3-benzodiazol-5-yl]piperidin-1-yl]propanoyl)-6-oxo-octahydropyrrolo[1,2-a][1,5]diazocin-5-yl]carbamoyl]-1H-indole-5-carbonylphosphonic acid]	100 to 1000
Cc1ncsc1-c1ccc(CNC(=O)[C@@H]2C[C@@H](O)CN2C(=O)[C@@H](NC(=O)CN2CCC(Cc3ccc(CO[C@H](C)[C@H](CCC(N)=O)NC(=O)[C@@H]4Cc5cccc6c5N4C(=O)[C@@H](NC(=O)c4cc5cc(C(=O)P(=O)(O)O)ccc5[nH]4)CC6)cc3)CC2)C(C)(C)C)cc1 [Compound I-178]	> 1000
Cc1ncsc1-c1ccc(CNC(=O)[C@@H]2C[C@@H](O)CN2C(=O)[C@@H](NC(=O)CCCCc2ccc(CN(C)C[C@H](CCC(N)=O)NC(=O)[C@@H]3Cc4cccc5c4N3C(=O)[C@@H](NC(=O)c3cc4cc(C(=O)P(=O)(O)O)ccc4[nH]3)CC5)cc2)C(C)(C)C)cc1 [Compound I-179, 2-[[(2S,11S)-2-[[(2S)-4-carbamoyl-1-([[4-(4-[[(2S)-1-[(2S,4R)-4-hydroxy-2-([[4-(4-methyl-1,3-thiazol-5-yl)phenyl]methyl]carbamoyl)pyrrolidin-1-yl]-3,3-dimethyl-1-oxobutan-2-yl]carbamoyl]butyl)phenyl]methyl](methyl)amino)butan-2-yl]carbamoyl]-12-oxo-1-azatricyclo[6.4.1.0^[4,13]]trideca-4(13),5,7-trien-11-yl]carbamoyl]-1H-indole-5-carbonylphosphonic acid]	100 to 1000
Cn1c(=O)n(C2CCC(=O)NC2=O)c2ccc(CCCCCCC(=O)N3CC[C@H]4CC[C@@H](C(=O)N[C@H](CCC(N)=O)C(=O)NC(c5ccccc5)c5ccccc5)N4C(=O)[C@@H](NC(=O)c4cc5cc(C(=O)P(=O)(O)O)ccc5[nH]4)C3)cc21 (stereo partly drawn) [Compound I-181, 2-[[(5S,8S,10aR)-8-[[(1R)-3-carbamoyl-1-(diphenylmethylcarbamoyl)propyl]carbamoyl]-3-[7-[1-(2,6-dioxopiperidin-3-yl)-3-methyl-2-oxo-1,3-benzodiazol-5-yl]heptanoyl]-6-oxo-octahydropyrrolo[1,2-a][1,5]diazocin-5-yl]carbamoyl]-1H-indole-5-carbonylphosphonic acid]	> 1000
Cn1c(=O)n(C2CCC(=O)NC2=O)c2ccc(CCCCCCCc3cc4c5c(c3)C[C@@H](C(=O)N[C@@H](CCC(N)=O)C(=O)NC(c3ccccc3)c3ccccc3)N5C(=O)[C@@H](NC(=O)c3cc5cc(C(=O)P(=O)(O)O)ccc5[nH]3)CC4)cc21 (stereo partly drawn) [Compound I-182, 2-[[(2S,11S)-2-[[(1S)-3-carbamoyl-1-(diphenylmethylcarbamoyl)propyl]carbamoyl]-6-[7-[1-(2,6-dioxopiperidin-3-yl)-3-methyl-2-oxo-1,3-benzodiazol-5-yl]heptyl]-12-oxo-1-azatricyclo[6.4.1.0^[4,13]]trideca-4(13),5,7-trien-11-yl]carbamoyl]-1H-indole-5-carbonylphosphonic acid]	100 to 1000
